From US10730919B2, “Peptides” (APITOPE INTERNATIONAL NV, priority 2013, dated 2020) come the findings set out here.

For this assay, the system named is RNB12 specific T cells. The assay is described as follows: Identification of apitopes in the RNB12 region (fresh vs fixed APCs, proliferation and IFN gamma). Type of assay: cell-based, human. The note with it: RNB12 specific TCL, fresh or fixed BM14 cells (FIG. 18). The protocol: Peripheral blood monocytes (PBMC) from healthy donors or Graves' disease patients were isolated (Histopaque-1077, Sigma-Aldrich), and frozen in aliquots. At day 0, cells were thawed and 106 PBMCs/ml cultured with 20 ug/ml peptide in supplemented (10 mM HEPES, 50 U/ml Penicillin/Streptomycin and 4 mM L-Glutamine (Lonza)) RPMI 1640 (Lonza) with 5% AB serum (Sigma Aldrich) added in a 6 well plate (Greiner Bio-one) and incubated in 37 C and 5% CO2. After 7 days rhIL-2 (R&D Systems) is added to a final concentration of 20 U/ml. […]
At day 24 the cells were harvested, washed and 2×104 cultured in a 96 well round-bottom plate (Cellstar, Greiner Bio One) with […] irradiated autologous PBMCs and VAVY/BM14/MGAR human cell lines expressing human MHC cl II molecules (International Histocompatibility Working group, Seattle, US) in supplemented RPMI+5% AB serum in presence of different antigens (peptides, protein) in concentration from 5-50 ug/ml. […] After the plates been frozen the cells were harvested and read with β counter (Wallac 1450 Microbeta Trilux) to assess proliferation. […]
The supernatants from TCL cultures were assessed for IFN gamma content by use of the Human IFN-gamma Duoset kit, R&D Systems following the manufacturer's instruction. Optical density was measured at 450 nm (Tecan Benelux)

KKKTLKLYNNGFTSVQGYKKK [RNB12-KKK]: the apitope status result is listed as “confirmed to be apitopes”.
